Like-named read-outs stand apart in the source and are kept apart here.
Target: T1, human APJ receptor (Homo sapiens, UniProt P35414)
T1 construct: expressed in transfected cells; host or cells: HEK293
T1 sequence (P35414 1-380): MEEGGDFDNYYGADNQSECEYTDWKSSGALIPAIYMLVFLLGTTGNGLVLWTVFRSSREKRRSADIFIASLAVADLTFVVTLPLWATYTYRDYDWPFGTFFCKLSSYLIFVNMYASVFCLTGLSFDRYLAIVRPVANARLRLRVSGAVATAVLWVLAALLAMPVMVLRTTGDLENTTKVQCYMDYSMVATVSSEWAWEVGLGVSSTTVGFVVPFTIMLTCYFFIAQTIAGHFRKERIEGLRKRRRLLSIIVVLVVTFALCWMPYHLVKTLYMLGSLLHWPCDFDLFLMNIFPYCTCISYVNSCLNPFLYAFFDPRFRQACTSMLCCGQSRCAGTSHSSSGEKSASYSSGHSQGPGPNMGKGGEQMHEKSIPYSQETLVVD
Assay: Intracellular cAMP accumulation assay (APJ hcAMP, HTRF)
Assay type: cell-based
Conditions: HEK293 cells stably expressing human APJ receptor, inhibition of forskolin-mediated cAMP production, read-out: hAPJ cAMP EC50 Potency range
How it was run: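 Inhibition of forskolin (2 μM)-driven cAMP, with […], measured by HTRF after 30 min room-temperature compound exposure of stably transfected HEK293 cells. cAMP read from a standard curve; variable-slope fit gives EC50, and maximal inhibition is normalised to (Pyr1)apelin-13 as 100%.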

| SMILES | EC50 (Table 1) | EC50 (Table 2) |
| --- | --- | --- |
| CCCCc1nc(O)c(S(=O)(=O)c2ccc(-c3ccncc3C)cc2)c(O)c1N(C)c1ccccc1C [Example 203, 6-butyl-5-(methyl(o-tolyl)amino)-3-((4-(3-methypyridin-4-yl)phenyl)sulfonyl)pyri-dine-2,4-diol] | 0.01 to 10 nM | – |
| CCN(c1ccccc1)c1c(-c2ccn(C)n2)nc(O)c(C(=O)N2CCC(c3ncc(Cl)cc3F)C2)c1O (stereo not shown) [Example 204, (3-(5-chloro-3-fluoropyridin-2-yl)pyrrolidin-1-yl)(5-(ethyl(phenyl)amino)-2,4-dihydroxy-6-(1-methyl-1H-pyrazol-3-yl)pyridin-3-yl)methanone] | – | 0.01 to 10 nM |
| CCN(c1ccccc1)c1c(-c2ccn(C)n2)nc(O)c(C(=O)N2CCC(c3ccccc3F)C2)c1O (stereo not shown) [Example 205, (5-(ethyl(phenyl)amino)-2,4-dihydroxy-6-(1-methyl-1H-pyrazol-3-yl)pyridin-3-yl)(3-(2-fluorophenyl)pyrrolidin-1-yl)methanone] | – | 0.01 to 10 nM |
| CCCCc1nc(O)c(S(=O)(=O)c2ccc(-c3ccccc3C(=O)NC)cc2)c(O)c1N(C)c1ccccc1C [Example 206, 4′-((6-butyl-2,4-dihydroxy-5-(methyl(o-tolyl)amino)pyridin-3-yl)sulfonyl)-N-methyl-[1,1′-biphenyl]-2-carboxamide] | 0.01 to 10 nM | – |
| CCN(c1ccccc1)c1c(-c2ccn(C)n2)nc(O)c(C(=O)N2CCC(c3ccc(F)cc3F)C2)c1O (stereo not shown) [Example 207, (3-(2,4-difluorophenyl)pyrrolidin-1-yl)(5-(ethyl(phenyl)amino)-2,4-dihydroxy-6-(1-methyl-1H-pyrazol-3-yl)pyridin-3-yl)methanone] | – | 0.01 to 10 nM |
| CCCCc1nc(O)c(S(=O)(=O)c2ccc(-c3ccccc3C(=O)NC3CC3)cc2)c(O)c1N(C)c1ccccc1C [Example 208, 4′-((6-butyl-2,4-dihydroxy-5-(methyl(o-tolyl)amino)pyridin-3-yl)sulfonyl)-N-cyclopropyl-[1,1′-biphenyl]-2-carboxamide] | 0.01 to 10 nM | – |
| CC(C)N(c1ccccc1)c1c(-c2ccn(C)n2)nc(O)c(C(=O)N2CCC(c3ccc(F)cc3F)C2)c1O (stereo not shown) [Example 209, (3-(2,4-difluorophenyl)pyrrolidin-1-yl)(2,4-dihydroxy-5-(isopropyl(phenyl)amino)-6-(1-methyl-1H-pyrazol-3-yl)pyridin-3-yl)methanone] | – | 0.01 to 10 nM |
| CCN(c1cccc(C#N)c1)c1c(-c2ccn(C)n2)nc(O)c(S(=O)(=O)c2ccc(-c3ccccc3C(=O)N(C)C)cc2)c1O [Example 210, 4′-((5-((3-cyano-phenyl)(ethyl)amino)-2,4-dihydroxy-6-(1-methyl-1H-pyrazol-3-yl)pyridin-3-yl)sulfonyl)-N,N-dimethyl-[1,1′-biphenyl]-2-carboxamide] | 0.01 to 10 nM | – |
| CCN(c1cccc(C#N)c1)c1c(-c2ccn(C)n2)nc(O)c(S(=O)(=O)c2ccc(-c3ccnc(F)c3C)cc2)c1O [Example 211, 3-(ethyl(5-((4-(2-fluoro-3-methylpyridin-4-yl)phenyl)sulfonyl)-4,6-dihydroxy-2-(1-methyl-1H-pyrazol-3-yl)pyridin-3-yl)amino)benzonitrile] | 0.01 to 10 nM | – |
| CCN(c1cccc(C#N)c1)c1c(-c2ccn(C)n2)nc(O)c(S(=O)(=O)c2ccc(-c3ccncc3C)cc2)c1O [Example 212, 3-((4,6-dihydroxy-2-(1-methyl-1H-pyrazol-3-yl)-5-((4-(3-methylpyridin-4-yl)phenyl)sulfonyl)pyri-din-3-yl)(ethyl)amino)benzonitrile] | 0.01 to 10 nM | – |
| CCN(c1cccc(C#N)c1)c1c(-c2ccn(C)n2)nc(O)c(S(=O)(=O)c2ccc(-c3ccc(F)nc3C)cc2)c1O [Example 213, 3-(ethyl(5-((4-(6-fluoro-2-methylpyridin-3-yl)phenyl)sulfonyl)-4,6-dihydroxy-2-(1-methyl-1H-pyrazol-3-yl)pyridin-3-yl)amino)benzonitrile] | 0.01 to 10 nM | – |
| CCN(c1cccc(C#N)c1)c1c(-c2ccn(C)n2)nc(O)c(S(=O)(=O)c2ccc(-c3ccccc3C(=O)NC)cc2)c1O [Example 214, 4′-((5-((3-cyanophenyl)(ethyl)ami-no)-2,4-dihydroxy-6-(1-methyl-1H-pyrazol-3-yl)pyridin-3-yl)sulfonyl)-N-methyl-[1,1′-biphenyl]-2-carboxamide] | 0.01 to 10 nM | – |
| CCN(c1cccc(C#N)c1)c1c(-c2ccn(C)n2)nc(O)c(S(=O)(=O)c2ccc(-c3cccc(F)c3C(N)=O)cc2)c1O [Example 215, 4′-((5-((3-cyanophenyl)(ethyl)ami-no)-2,4-dihydroxy-6-(1-methyl-1H-pyrazol-3-yl)pyridin-3-yl)sulfonyl)-3-fluoro-[1,1′-biphenyl]-2-carboxamide] | 0.01 to 10 nM | – |
| CCN(c1cccc(C#N)c1)c1c(-c2ccn(C)n2)nc(O)c(S(=O)(=O)c2ccc(-c3ccccc3C(N)=O)cc2)c1O [Example 216, 4′-((5-((3-cyanophenyl)(ethyl)ami-no)-2,4-dihydroxy-6-(1-methyl-1H-pyrazol-3-yl)pyridin-3-yl)sulfonyl)-[1,1′-biphenyl]-2-carboxamide] | 0.01 to 10 nM | – |
| CCN(c1cccc(C#N)c1)c1c(-c2ccn(C)n2)nc(O)c(S(=O)(=O)c2ccc(-c3cccnc3C)cc2)c1O [Example 217] | 0.01 to 10 nM | – |
| CCN(c1cccc(C#N)c1)c1c(-c2ccn(C)n2)nc(O)c(S(=O)(=O)c2ccc(-c3ccccc3C(=O)NC3CC3)cc2)c1O [Example 218, 4′-((5-((3-cyanophenyl)(ethyl)ami-no)-2,4-dihydroxy-6-(1-methyl-1H-pyrazol-3-yl)pyridin-3-y)sulfonyl)-N-cyclopropyl-[1,1′-biphenyl]-2-carboxamide] | 0.01 to 10 nM | – |

From patent US10669258B2, “3-sulfonyl-5-aminopyridine-2,4-diol APJ agonists” (BRISTOL-MYERS SQUIBB COMPANY, priority 2016, dated 2020)
